Test results: PMC12362615, “Design, Synthesis, and Cellular Characterization of a New Class of IPMK Kinase Inhibitors” (Journal of Medicinal Chemistry, 2025)

Columns and labels:
[1] = system: human U251-MG glioblastoma cells; assay: CyQuant cell count / proliferation assay; assay type: cell-based; conditions: 48 h
Description: 1 Compound 1 inhibits human U251 glioblastoma cell growth and labeled inositol phosphate levels. (A) Schematic of inositol phosphate metabolism. (B) Chemical structure of compound 1, indicating moiety A (blue highlight), the core (gray highlight), and moiety B (red highlight), and the IC50 value as determined by the kinase-GLO assay. (C) CyQuant cell count assay of 10,000 human U251-MG glioblastoma cells seeded per well, treated for 48 h with DMSO vehicle or 400 nM compound 1 (n = 8, ***p = 0.0046, unpaired t test). (D) HPLC analysis of ^3H-inositol phosphates from U251-MG cells treated with 400 nM compound 1 (red bars) or DMSO (blue bars) and metabolically labeled with ^3H-inositol for 48 h, expressed as the percentage of the inositol peak from the HPLC for InsP3, InsP4, InsP5, and InsP6, as indicated, *p < 0.05 by unpaired t test Bonferroni corrected for multiple comparisons. (E) Same data as in (D) replotted with a nonzero y-axis to facilitate visualizing differences between DMSO vs. compound treatment for each indicated inositol phosphate species, *p < 0.05 by unpaired t test Bonferroni corrected for multiple comparisons.
Error represents the standard error from 3 independent assays. (B) CyQuant cellular proliferation assay of 10,000 human U251-MG glioblastoma cells seeded per well, treated for 48 h with DMSO vehicle or 10 μM 14 (n = 8, ****p adj < 0.0001 by one-way ANOVA, Dunnett’s corrected; *p < 0.05 by unpaired t test). (C) HPLC analysis of ^3H-inositol phosphates from U251-MG cells treated with 10 μM compound 14 (red bars) or DMSO (blue bars) and metabolically labeled with ^3H-inositol for 48 h, expressed as a percentage of all the peaks detectable from the HPLC, *p < 0.05, **p < 0.01, ***p < 0.001 by unpaired t test compared to DMSO-treated control for all remaining panels, n = 3. (D) Same as (C) but expressed as a percentage of the inositol HPLC peak, n = 3. (E) Same as C but expressed as a percentage of all the inositol phosphate peaks combined from the HPLC, n = 3.

ABL = target: T1, ABL (Homo sapiens, UniProt P00519); assay: Protein kinase profiling, Mobility Shift Assay (Carna Biosciences); assay type: biochemical; conditions: read-out: % Inhibition at 1.0 μM 14
T1 construct: purchased Carna Biosciences
T1 sequence (P00519 whole entry): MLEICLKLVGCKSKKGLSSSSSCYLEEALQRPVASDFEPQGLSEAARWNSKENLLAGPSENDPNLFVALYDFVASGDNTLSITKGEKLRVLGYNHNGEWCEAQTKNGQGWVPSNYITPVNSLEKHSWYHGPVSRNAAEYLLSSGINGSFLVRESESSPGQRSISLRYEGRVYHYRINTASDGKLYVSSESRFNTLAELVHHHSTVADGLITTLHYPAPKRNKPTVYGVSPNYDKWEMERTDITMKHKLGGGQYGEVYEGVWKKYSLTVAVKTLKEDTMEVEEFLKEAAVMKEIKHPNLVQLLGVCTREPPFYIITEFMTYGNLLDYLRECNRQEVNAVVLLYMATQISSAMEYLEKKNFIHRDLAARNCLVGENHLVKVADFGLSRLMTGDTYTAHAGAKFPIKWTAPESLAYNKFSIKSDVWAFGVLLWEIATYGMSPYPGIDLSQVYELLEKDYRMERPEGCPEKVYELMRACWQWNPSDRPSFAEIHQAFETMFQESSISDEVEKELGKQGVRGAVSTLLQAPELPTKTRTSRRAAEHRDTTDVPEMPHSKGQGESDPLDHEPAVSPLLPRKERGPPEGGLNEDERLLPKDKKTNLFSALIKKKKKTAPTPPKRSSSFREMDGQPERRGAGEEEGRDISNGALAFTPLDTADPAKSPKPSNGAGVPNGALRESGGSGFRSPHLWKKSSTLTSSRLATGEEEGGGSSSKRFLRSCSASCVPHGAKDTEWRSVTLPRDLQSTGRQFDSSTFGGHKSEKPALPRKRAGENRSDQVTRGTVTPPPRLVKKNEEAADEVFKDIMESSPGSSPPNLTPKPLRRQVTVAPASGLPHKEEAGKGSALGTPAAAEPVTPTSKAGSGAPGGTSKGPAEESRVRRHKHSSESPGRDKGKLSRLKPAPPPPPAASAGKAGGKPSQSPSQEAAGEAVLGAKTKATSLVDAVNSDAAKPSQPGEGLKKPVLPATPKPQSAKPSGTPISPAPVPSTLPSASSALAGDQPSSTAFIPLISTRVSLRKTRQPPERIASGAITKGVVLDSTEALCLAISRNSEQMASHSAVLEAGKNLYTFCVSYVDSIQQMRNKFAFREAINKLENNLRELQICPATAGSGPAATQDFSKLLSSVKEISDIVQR
Description: (§1) Protein kinase profiling of compound 14 was executed by Carna Biosciences. Briefly, compound 14 was prepared by dissolving it in dimethyl sulfoxide (DMSO) and then further diluting it in DMSO to a concentration of […]. That stock solution was further diluted 25-fold with kinase assay buffer (20 mM HEPES, 0.01% Triton X-100, 2 mM DTT, pH 7.5) to make the final 1 μM compound 14 solution. Reference compounds for the assay controls were prepared similarly. The off-chip Mobility Shift Assay (MSA) was prepared with 5 μL of 4× compound solution, 5 μL of 4× substrate/ATP/metal solution, and 10 μL of 2× kinase solution, prepared with assay buffer (20 mM HEPES, 0.01% Triton X-100, 2 mM DTT, pH 7.5). The components were mixed and incubated in a polypropylene 384-well microplate for 1 h or 5 h at room temperature, depending on the kinase being tested. 60 μL of termination buffer (QuickScout Screening Assist MSA; Carna Biosciences) was added to the well to stop the reactions, and the mixture was applied to a LabChip3000 system (Caliper Life Sciences. The product and substrate peptide peaks were separated and quantitated. The kinase reactions were evaluated by the product ratio, calculated from the peak heights of the product (P) and substrate (S) peptides (P/(P + S)). Product ratio values for the control reaction were set as 0% inhibition, and the readout value of the background (no kinase added) was set as 100% inhibition. The percent inhibition of each test solution was then calculated as reported in Figure A. The phylogenetic tree was generated using KinMap at https://bmcbioinformatics.biomedcentral.com/articles/10.1186/s12859-016-1433-7.

AKT1 = target: T2, AKT1 (Homo sapiens, UniProt P31749); assay: as above; assay type: biochemical; conditions: read-out: % Inhibition at 1.0 μM 14
T2 construct: purchased Carna Biosciences
Description: as §1

AurA = target: T3, AurA (Homo sapiens, UniProt O14965); assay: as above; assay type: biochemical; conditions: read-out: % Inhibition at 1.0 μM 14
T3 construct: purchased Carna Biosciences
T3 sequence (O14965 whole entry): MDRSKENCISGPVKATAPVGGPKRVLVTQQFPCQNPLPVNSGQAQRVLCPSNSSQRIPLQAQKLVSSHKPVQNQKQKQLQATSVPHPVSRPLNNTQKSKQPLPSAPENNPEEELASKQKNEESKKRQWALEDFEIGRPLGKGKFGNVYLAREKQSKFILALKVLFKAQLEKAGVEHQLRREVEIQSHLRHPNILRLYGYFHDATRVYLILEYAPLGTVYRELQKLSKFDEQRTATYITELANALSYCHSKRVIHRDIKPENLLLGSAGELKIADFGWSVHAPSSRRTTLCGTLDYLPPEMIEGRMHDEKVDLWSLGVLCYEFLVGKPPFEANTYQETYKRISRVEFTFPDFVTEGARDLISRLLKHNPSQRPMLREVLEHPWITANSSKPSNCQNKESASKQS
Description: as §1

CaMK4 = target: T4, CaMK4 (Homo sapiens, UniProt Q16566); assay: as above; assay type: biochemical; conditions: read-out: % Inhibition at 1.0 μM 14
T4 construct: purchased Carna Biosciences
Description: as §1

Erk2 = target: T5, Erk2 (Homo sapiens, UniProt P28482); assay: as above; assay type: biochemical; conditions: read-out: % Inhibition at 1.0 μM 14
T5 construct: purchased Carna Biosciences
T5 sequence (P28482 whole entry): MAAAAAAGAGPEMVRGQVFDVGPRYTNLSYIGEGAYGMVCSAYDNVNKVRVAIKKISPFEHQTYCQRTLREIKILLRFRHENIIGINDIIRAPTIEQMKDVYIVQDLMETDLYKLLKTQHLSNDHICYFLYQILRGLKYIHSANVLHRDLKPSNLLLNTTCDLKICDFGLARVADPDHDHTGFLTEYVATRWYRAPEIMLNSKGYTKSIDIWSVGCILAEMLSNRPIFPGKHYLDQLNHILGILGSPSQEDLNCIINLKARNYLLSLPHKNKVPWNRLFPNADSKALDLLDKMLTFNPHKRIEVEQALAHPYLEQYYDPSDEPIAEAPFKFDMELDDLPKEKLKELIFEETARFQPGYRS
Description: as §1

FGFR1 = target: T6, FGFR1 (Homo sapiens, UniProt P11362); assay: as above; assay type: biochemical; conditions: read-out: % Inhibition at 1.0 μM 14
T6 construct: purchased Carna Biosciences
Description: as §1

IGF1R = target: T7, IGF1R (Homo sapiens, UniProt P08069); assay: as above; assay type: biochemical; conditions: read-out: % Inhibition at 1.0 μM 14
T7 construct: purchased Carna Biosciences
Description: as §1

IKKb = target: T8, IKKb (Homo sapiens, UniProt O14920); assay: as above; assay type: biochemical; conditions: read-out: % Inhibition at 1.0 μM 14
T8 construct: purchased Carna Biosciences
Description: as §1

IRAK4 = target: T9, IRAK4 (Homo sapiens, UniProt Q9NWZ3); assay: as above; assay type: biochemical; conditions: read-out: % Inhibition at 1.0 μM 14
T9 construct: purchased Carna Biosciences
T9 sequence (Q9NWZ3 whole entry): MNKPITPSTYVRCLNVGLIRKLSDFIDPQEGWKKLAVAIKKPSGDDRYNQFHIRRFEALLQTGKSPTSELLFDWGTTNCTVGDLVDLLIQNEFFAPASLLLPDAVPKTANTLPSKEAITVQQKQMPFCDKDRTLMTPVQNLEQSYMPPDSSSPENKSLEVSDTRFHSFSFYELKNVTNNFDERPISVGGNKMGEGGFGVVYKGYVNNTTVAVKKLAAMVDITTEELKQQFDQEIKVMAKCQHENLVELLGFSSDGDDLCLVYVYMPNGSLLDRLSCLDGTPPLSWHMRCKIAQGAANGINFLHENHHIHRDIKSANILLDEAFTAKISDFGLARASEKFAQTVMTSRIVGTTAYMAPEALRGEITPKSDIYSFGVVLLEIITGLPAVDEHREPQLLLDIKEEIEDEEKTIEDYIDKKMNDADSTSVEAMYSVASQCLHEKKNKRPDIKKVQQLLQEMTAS
Description: as §1

ITK = target: T10, ITK (Homo sapiens, UniProt Q08881); assay: as above; assay type: biochemical; conditions: read-out: % Inhibition at 1.0 μM 14
T10 construct: purchased Carna Biosciences
Description: as §1

JNK2 = target: T11, JNK2 (Homo sapiens, UniProt P45984); assay: as above; assay type: biochemical; conditions: read-out: % Inhibition at 1.0 μM 14
T11 construct: purchased Carna Biosciences
T11 sequence (P45984 whole entry): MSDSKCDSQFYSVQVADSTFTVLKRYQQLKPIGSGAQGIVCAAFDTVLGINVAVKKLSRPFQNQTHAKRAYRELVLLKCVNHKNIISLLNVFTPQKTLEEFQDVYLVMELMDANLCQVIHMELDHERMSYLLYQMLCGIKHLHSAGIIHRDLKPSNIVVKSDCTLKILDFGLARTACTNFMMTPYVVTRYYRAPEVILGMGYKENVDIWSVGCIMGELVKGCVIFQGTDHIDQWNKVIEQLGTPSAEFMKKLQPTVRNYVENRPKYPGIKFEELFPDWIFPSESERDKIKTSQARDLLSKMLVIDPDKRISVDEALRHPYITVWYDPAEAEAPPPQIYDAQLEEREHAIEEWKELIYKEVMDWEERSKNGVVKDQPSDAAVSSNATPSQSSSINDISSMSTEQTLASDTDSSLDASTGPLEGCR
Description: as §1

KDR = target: T12, KDR (Homo sapiens, UniProt P35968); assay: as above; assay type: biochemical; conditions: read-out: % Inhibition at 1.0 μM 14
T12 construct: purchased Carna Biosciences
Description: as §1

LCK = target: T13, LCK (Homo sapiens, UniProt P06239); assay: as above; assay type: biochemical; conditions: read-out: % Inhibition at 1.0 μM 14
T13 construct: purchased Carna Biosciences
T13 sequence (P06239 whole entry): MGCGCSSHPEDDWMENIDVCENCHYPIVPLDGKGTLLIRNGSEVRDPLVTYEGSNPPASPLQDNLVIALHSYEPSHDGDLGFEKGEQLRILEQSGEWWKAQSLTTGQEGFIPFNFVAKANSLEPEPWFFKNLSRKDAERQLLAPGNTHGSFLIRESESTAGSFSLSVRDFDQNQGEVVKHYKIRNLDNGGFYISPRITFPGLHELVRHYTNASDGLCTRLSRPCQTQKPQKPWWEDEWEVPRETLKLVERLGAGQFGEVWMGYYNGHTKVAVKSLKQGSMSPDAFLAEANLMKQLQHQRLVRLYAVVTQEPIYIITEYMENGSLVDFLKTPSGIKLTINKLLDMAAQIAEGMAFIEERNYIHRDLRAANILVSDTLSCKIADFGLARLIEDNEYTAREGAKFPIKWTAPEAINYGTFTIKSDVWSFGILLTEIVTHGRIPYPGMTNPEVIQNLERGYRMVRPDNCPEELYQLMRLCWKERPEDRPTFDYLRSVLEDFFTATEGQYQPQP
Description: as §1

MER = target: T14, MER (Homo sapiens, UniProt Q12866); assay: as above; assay type: biochemical; conditions: read-out: % Inhibition at 1.0 μM 14
T14 construct: purchased Carna Biosciences
Description: as §1

MET = target: T15, MET (Homo sapiens, UniProt P08581); assay: as above; assay type: biochemical; conditions: read-out: % Inhibition at 1.0 μM 14
T15 construct: purchased Carna Biosciences
T15 sequence (P08581 25-1390): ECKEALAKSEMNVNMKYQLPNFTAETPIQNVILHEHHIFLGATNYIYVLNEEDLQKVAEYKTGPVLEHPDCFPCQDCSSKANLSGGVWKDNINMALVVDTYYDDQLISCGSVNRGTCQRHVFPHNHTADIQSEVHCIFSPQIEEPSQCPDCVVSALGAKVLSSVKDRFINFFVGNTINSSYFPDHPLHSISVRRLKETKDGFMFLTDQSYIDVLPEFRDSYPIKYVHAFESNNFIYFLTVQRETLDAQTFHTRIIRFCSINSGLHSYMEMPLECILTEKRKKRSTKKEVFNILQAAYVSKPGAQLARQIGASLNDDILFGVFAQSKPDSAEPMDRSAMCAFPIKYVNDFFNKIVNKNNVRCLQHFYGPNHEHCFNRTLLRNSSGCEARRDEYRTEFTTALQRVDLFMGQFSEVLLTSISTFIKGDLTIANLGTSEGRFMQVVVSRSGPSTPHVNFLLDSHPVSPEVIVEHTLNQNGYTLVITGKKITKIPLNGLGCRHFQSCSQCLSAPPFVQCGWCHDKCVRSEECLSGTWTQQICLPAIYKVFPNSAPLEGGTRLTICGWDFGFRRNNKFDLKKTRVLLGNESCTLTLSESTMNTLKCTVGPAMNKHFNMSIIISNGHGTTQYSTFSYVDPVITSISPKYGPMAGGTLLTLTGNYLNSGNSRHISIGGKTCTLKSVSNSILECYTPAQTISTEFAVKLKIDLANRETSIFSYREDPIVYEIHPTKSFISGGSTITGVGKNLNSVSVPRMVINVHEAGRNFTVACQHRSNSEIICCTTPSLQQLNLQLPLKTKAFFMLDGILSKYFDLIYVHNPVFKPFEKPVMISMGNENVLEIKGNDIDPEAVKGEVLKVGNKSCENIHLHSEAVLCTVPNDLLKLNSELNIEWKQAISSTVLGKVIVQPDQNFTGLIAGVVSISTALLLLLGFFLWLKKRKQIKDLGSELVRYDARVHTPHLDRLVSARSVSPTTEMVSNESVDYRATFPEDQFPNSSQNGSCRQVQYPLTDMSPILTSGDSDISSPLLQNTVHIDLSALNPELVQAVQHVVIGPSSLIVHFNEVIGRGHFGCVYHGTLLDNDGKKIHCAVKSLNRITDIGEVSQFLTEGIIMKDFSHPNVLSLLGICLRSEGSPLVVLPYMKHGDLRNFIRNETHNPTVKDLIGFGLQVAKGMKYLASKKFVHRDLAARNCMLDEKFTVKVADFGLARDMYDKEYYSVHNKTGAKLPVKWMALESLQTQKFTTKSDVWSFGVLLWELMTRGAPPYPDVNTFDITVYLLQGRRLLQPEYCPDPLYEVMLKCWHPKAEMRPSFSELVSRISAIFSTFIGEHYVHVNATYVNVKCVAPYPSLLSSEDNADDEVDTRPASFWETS
Description: as §1

MST1 = target: T16, MST1 (Homo sapiens, UniProt Q13043); assay: as above; assay type: biochemical; conditions: read-out: % Inhibition at 1.0 μM 14
T16 construct: purchased Carna Biosciences
Description: as §1

ROCK1 = target: T17, ROCK1 (Homo sapiens, UniProt Q13464); assay: as above; assay type: biochemical; conditions: read-out: % Inhibition at 1.0 μM 14
T17 construct: purchased Carna Biosciences
Description: as §1

SRC = target: T18, SRC (Homo sapiens, UniProt P12931); assay: as above; assay type: biochemical; conditions: read-out: % Inhibition at 1.0 μM 14
T18 construct: purchased Carna Biosciences
Description: as §1

SYK = target: T19, SYK (Homo sapiens, UniProt P43405); assay: as above; assay type: biochemical; conditions: read-out: % Inhibition at 1.0 μM 14
T19 construct: purchased Carna Biosciences
Description: as §1

p38a = target: T20, p38a (Homo sapiens, UniProt Q16539); assay: as above; assay type: biochemical; conditions: read-out: % Inhibition at 1.0 μM 14
T20 construct: purchased Carna Biosciences
T20 sequence (Q16539 whole entry): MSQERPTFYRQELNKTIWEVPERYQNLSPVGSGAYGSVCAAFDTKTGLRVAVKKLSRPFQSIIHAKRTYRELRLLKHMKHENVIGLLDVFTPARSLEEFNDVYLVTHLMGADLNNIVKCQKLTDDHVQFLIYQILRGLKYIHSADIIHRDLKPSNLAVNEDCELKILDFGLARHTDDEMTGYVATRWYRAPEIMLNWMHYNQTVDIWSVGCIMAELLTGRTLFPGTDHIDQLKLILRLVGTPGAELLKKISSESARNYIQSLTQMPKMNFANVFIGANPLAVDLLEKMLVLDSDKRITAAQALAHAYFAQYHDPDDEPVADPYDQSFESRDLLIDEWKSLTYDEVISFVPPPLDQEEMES
Description: as §1

S6Kb = assay: as above; assay type: biochemical, human
Description: Protein kinase profiling of compound 14 was executed by Carna Biosciences. Briefly, compound 14 was prepared by dissolving it in dimethyl sulfoxide (DMSO) and then further diluting it in DMSO to a concentration of 25 μM. That stock solution was further diluted 25-fold with kinase assay buffer (20 mM HEPES, 0.01% Triton X-100, 2 mM DTT, pH 7.5) to make the final 1 μM compound 14 solution. Reference compounds for the assay controls were prepared similarly. The off-chip Mobility Shift Assay (MSA) was prepared with 5 μL of 4× compound solution, 5 μL of 4× substrate/ATP/metal solution, and 10 μL of 2× kinase solution, prepared with assay buffer (20 mM HEPES, 0.01% Triton X-100, 2 mM DTT, pH 7.5). The components were mixed and incubated in a polypropylene 384-well microplate for 1 h or 5 h at room temperature, depending on the kinase being tested. […]

Q: How did the cell growth ([1]; 1.0 μM) turn out when `c1cc(-c2onc3ccc(-c4nnn[nH]4)cc23)cc(C2CCN(C3CCC3)CC2)c1` [Compound 14, 3-(3-(1-Cyclobutylpiperidin-4-yl)phenyl)-5-(1H-tetrazol-5-yl)benzo[c]isoxazole] was run?
A: decreased cell growth

Q: And the “cell growth, CyQuant cellular proliferation assay” value ([1]; 10 μM, vs DMSO)?
A: inhibits cell growth

Q: And the inhibition at 1 µM (ABL)?
A: 27.5%

Q: And the inhibition at 1 µM (AKT1)?
A: 7.4%

Q: And the inhibition at 1 µM (AurA)?
A: 24.7%

Q: What about the inhibition at 1 µM (CaMK4) of the same compound?
A: -4%

Q: And the inhibition at 1 µM (Erk2)?
A: -2.2%

Q: And the inhibition at 1 µM (FGFR1)?
A: 40.5%

Q: And the inhibition at 1 µM (IGF1R)?
A: 1.7%

Q: And the inhibition at 1 µM (IKKb)?
A: 0.4%

Q: And the inhibition at 1 µM (IRAK4)?
A: 1.3%

Q: What about the inhibition at 1 µM (ITK) of the same compound?
A: 5.7%

Q: What about the inhibition at 1 µM (JNK2) of the same compound?
A: 7.7%

Q: And the inhibition at 1 µM (KDR)?
A: ≥ 75%

Q: And the inhibition at 1 µM (LCK)?
A: 32.7%

Q: What about the inhibition at 1 µM (MER) of the same compound?
A: 72%

Q: What about the inhibition at 1 µM (MET) of the same compound?
A: 34.7%

Q: And the inhibition at 1 µM (MST1)?
A: 51%

Q: And the inhibition at 1 µM (ROCK1)?
A: 6.1%

Q: And the inhibition at 1 µM (SRC)?
A: 18.4%

Q: What about the inhibition at 1 µM (SYK) of the same compound?
A: -13%

Q: What about the inhibition at 1 µM (p38a) of the same compound?
A: 2.6%

Q: What about the “% Inhibition at 1.0 μM 14” value (S6Kb) of the same compound?
A: 9.4%
